How the values were obtained:
Type in all cases: in vivo, human
[1] = Study 1: plasma concentration, non-stereoselective HPLC
glucose [2] = experiment: Study 2: whole blood glucose, 2 mg AG-EE 388 ZW capsule or tablet, crossover
Excerpt: (§1) Blood samples were taken at various times.

glucose [3] = experiment: Study 3: whole blood glucose, single fasting test subject, crossover
glucose [4] = experiment: Study 5: plasma glucose after 1 mg AG-EE 388 ZW i.v., oral solution or capsule
Excerpt: Blood samples were taken at different times.

[5] = Study 2: plasma concentration, HPLC; details: for concentration at 0.2 h: 0.20 h; for concentration at 0.5 h: 0.50 h; for concentration at 1.5 h: 1.50 h
Excerpt: as §1

[6] = human, plasma, po, 2 mg, 2 mg capsule, 4.00 h
[7] = human, plasma, po, 2 mg, 2 mg capsule, 5.00 h
[8] = human, plasma, po, 2 mg, 2 mg capsule, 6.00 h
[9] = human, plasma, po, 2 mg capsule p.o., read-out: Maximum concentration
[10] = human, plasma, po, 2 mg, 2 mg capsule
[11] = human, plasma, po, 2 mg, 2 mg tablet

CCOc1cc(CC(=O)NC(CC(C)C)c2ccccc2N2CCCCC2)ccc1C(=O)O (racemic) [AG-EE 388 ZW, 2-ethoxy-4-[N-[1-(2-piperidino-phenyl)-3-methyl-1-butyl]aminocarbonylmethyl]-benzoic acid]
Concentration (mean) ([1]; 2 mg capsule, 0 h): 0.0 ng/mL
Concentration (mean) ([1]; 2 mg capsule, 10.00 h): 0.0 ng/mL
Time at which level reaches the detection limit ([1]; 2 mg capsule, limit 5 ng/ml): 5 h
concentration at 0.5 h ([1]; human, plasma, po, 2 mg, 2 mg capsule, 0.50 h): 55.8 ng/mL
concentration at 0.75 h ([1]; human, plasma, po, 2 mg, 2 mg capsule, 0.75 h): 82.9 ng/mL
concentration at 1 h ([1]; human, plasma, po, 2 mg, 2 mg capsule, 1.00 h): 82.8 ng/mL
concentration at 1.5 h ([1]; human, plasma, po, 2 mg, 2 mg capsule, 1.50 h): 64.7 ng/mL
concentration at 2 h ([1]; human, plasma, po, 2 mg, 2 mg capsule, 2.00 h): 58.3 ng/mL
concentration at 3 h ([1]; human, plasma, po, 2 mg, 2 mg capsule, 3.00 h): 29.4 ng/mL
concentration at 4 h [1, 6]: 16.3 ng/mL
concentration at 5 h [1, 7]: 9 ng/mL
concentration at 6 h [1, 8]: 4.2 ng/mL
concentration at 8 h ([1]; human, plasma, po, 2 mg, 2 mg capsule, 8.00 h): 1.2 ng/mL
Cmax [1, 9]: 83 ± 18 ng/mL
Glucose (mean) (glucose [2]; 2 mg capsule, 0 h): 5.0 mmol/L
Glucose (mean) (glucose [2]; 2 mg capsule, 0.20 h): 5.0 mmol/L
Glucose (mean) (glucose [2]; 2 mg capsule, 0.33 h): 4.9 mmol/L
Glucose (mean) (glucose [2]; 2 mg capsule, 0.50 h): 4.8 mmol/L
Glucose (mean) (glucose [2]; 2 mg capsule, 0.75 h): 4.6 mmol/L
Glucose (mean) (glucose [2]; 2 mg capsule, 1.00 h): 4.4 mmol/L
Glucose (mean) (glucose [2]; 2 mg capsule, 1.50 h): 3.9 mmol/L
Glucose (mean) (glucose [2]; 2 mg capsule, 2.00 h (breakfast)): 3.7 mmol/L
Glucose (mean) (glucose [2]; 2 mg capsule, 3.00 h): 4.4 mmol/L
Glucose (mean) (glucose [2]; 2 mg capsule, 4.00 h): 4.0 mmol/L
Glucose (mean) (glucose [2]; 2 mg capsule, 5.00 h (lunch)): 4.2 mmol/L
Glucose (mean) (glucose [2]; 2 mg capsule, 6.00 h): 4.8 mmol/L
Glucose (mean) (glucose [2]; 2 mg capsule, 9.00 h): 5.0 mmol/L
Glucose (mean) (glucose [2]; 2 mg capsule, 24.00 h): 4.9 mmol/L
Time at which glucose levels return to original level (glucose [2]; 2 mg p.o.): 6 h
Glucose (mean) (glucose [2]; 2 mg tablet, 0 h): 4.9 mmol/L
Glucose (mean) (glucose [2]; 2 mg tablet, 0.20 h): 5.0 mmol/L
Glucose (mean) (glucose [2]; 2 mg tablet, 0.33 h): 4.9 mmol/L
Glucose (mean) (glucose [2]; 2 mg tablet, 0.50 h): 4.6 mmol/L
Glucose (mean) (glucose [2]; 2 mg tablet, 0.75 h): 4.4 mmol/L
Glucose (mean) (glucose [2]; 2 mg tablet, 1.00 h): 4.1 mmol/L
Glucose (mean) (glucose [2]; 2 mg tablet, 1.50 h): 3.8 mmol/L
Glucose (mean) (glucose [2]; 2 mg tablet, 2.00 h (breakfast)): 3.8 mmol/L
Glucose (mean) (glucose [2]; 2 mg tablet, 3.00 h): 4.7 mmol/L
Glucose (mean) (glucose [2]; 2 mg tablet, 4.00 h): 4.2 mmol/L
Glucose (mean) (glucose [2]; 2 mg tablet, 5.00 h (lunch)): 4.2 mmol/L
Glucose (mean) (glucose [2]; 2 mg tablet, 6.00 h): 5.2 mmol/L
Glucose (mean) (glucose [2]; 2 mg tablet, 9.00 h): 5.0 mmol/L
Glucose (mean) (glucose [2]; 2 mg tablet, 24.00 h): 4.8 mmol/L
Time of maximum blood sugar reduction (glucose [3]; 2 mg): 2.0 h
Glucose, deviation against t = 0 (glucose [3]; 2 mg capsule, 0 h): 0%
Glucose, deviation against t = 0 (glucose [3]; 2 mg, 0.50 h): 0%
Glucose, deviation against t = 0 (glucose [3]; 2 mg, 0.75 h): 0%
Glucose, deviation against t = 0 (glucose [3]; 2 mg, 1.00 h): -5%
Glucose, deviation against t = 0 (glucose [3]; 2 mg, 1.25 h): -12%
Glucose, deviation against t = 0 (glucose [3]; 2 mg, 1.50 h): -18%
Glucose, deviation against t = 0 (glucose [3]; 2 mg, 1.75 h): -23%
Glucose, deviation against t = 0 (glucose [3]; 2 mg, 2.00 h): -29%
Glucose, deviation against t = 0 (glucose [3]; 2 mg, 2.50 h): -27%
Glucose, deviation against t = 0 (glucose [3]; 2 mg, 3.00 h): -21%
Glucose, deviation against t = 0 (glucose [3]; 2 mg, 4.00 h): -17%
Glucose, deviation against t = 0 (glucose [3]; 2 mg, 5.00 h): -17%
Glucose, deviation against t = 0 (glucose [3]; 2 mg, 6.00 h): -16%
Maximum lowering of blood glucose (glucose [3]; 4 mg): -38%
Onset of effect (glucose [3]; 4 mg): about 1.0 hour
Time of maximum blood sugar reduction (glucose [3]; 4 mg): 2.0 h
Glucose, deviation against t = 0 (glucose [3]; 4 mg capsule, 0 h): 0%
Glucose, deviation against t = 0 (glucose [3]; 4 mg, 0.50 h): -3%
Glucose, deviation against t = 0 (glucose [3]; 4 mg, 0.75 h): -1%
Glucose, deviation against t = 0 (glucose [3]; 4 mg, 1.00 h): -7%
Glucose, deviation against t = 0 (glucose [3]; 4 mg, 1.25 h): -15%
Glucose, deviation against t = 0 (glucose [3]; 4 mg, 1.50 h): -21%
Glucose, deviation against t = 0 (glucose [3]; 4 mg, 1.75 h): -32%
Glucose, deviation against t = 0 (glucose [3]; 4 mg, 2.00 h): -38%
Glucose, deviation against t = 0 (glucose [3]; 4 mg, 2.50 h): -34%
Glucose, deviation against t = 0 (glucose [3]; 4 mg, 3.00 h): -28%
Glucose, deviation against t = 0 (glucose [3]; 4 mg, 3.50 h): -24%
Glucose, deviation against t = 0 (glucose [3]; 4 mg, 4.00 h): -26%
Glucose, deviation against t = 0 (glucose [3]; 4 mg, 5.00 h): -24%
Glucose, deviation against t = 0 (glucose [3]; 4 mg, 6.00 h): -23%
Glucose, deviation against t = 0 (glucose [3]; 4 mg, 7.00 h): -20%
Glucose, deviation against t = 0 (glucose [3]; 4 mg, 8.00 h): -25%
Glucose (mean) (glucose [4]; 1 mg i.v., 0.00 h): 6.10 mmol/L
Glucose (mean) (glucose [4]; 1 mg p.o. capsule, 0.00 h): 5.32 mmol/L
Glucose (mean) (glucose [4]; 1 mg p.o. solution, 0.00 h): 5.85 mmol/L
Glucose (mean) (glucose [4]; i.v., 0.08 h): 6.54 mmol/L
Glucose (mean) (glucose [4]; i.v., 0.17 h): 6.46 mmol/L
Glucose (mean) (glucose [4]; i.v., 0.25 h): 6.46 mmol/L
Glucose (mean) (glucose [4]; i.v., 0.28 h): 6.46 mmol/L
Glucose (mean) (glucose [4]; i.v., 0.33 h): 6.40 mmol/L
Glucose (mean) (glucose [4]; i.v., 0.42 h): 6.01 mmol/L
Glucose (mean) (glucose [4]; i.v., 0.50 h): 5.86 mmol/L
Glucose (mean) (glucose [4]; i.v., 0.75 h): 5.14 mmol/L
Glucose (mean) (glucose [4]; i.v., 1.00 h): 4.57 mmol/L
Glucose (mean) (glucose [4]; i.v., 1.50 h): 4.55 mmol/L
Glucose (mean) (glucose [4]; i.v., 2.00 h (breakfast)): 5.11 mmol/L
Glucose (mean) (glucose [4]; i.v., 2.50 h): 7.14 mmol/L
Glucose (mean) (glucose [4]; i.v., 3.00 h): 6.31 mmol/L
Glucose (mean) (glucose [4]; i.v., 4.00 h): 5.58 mmol/L
Glucose (mean) (glucose [4]; i.v., 5.00 h (lunch)): 5.48 mmol/L
Glucose (mean) (glucose [4]; i.v., 6.00 h): 6.53 mmol/L
Glucose (mean) (glucose [4]; i.v., 9.00 h): 6.49 mmol/L
Glucose (mean) (glucose [4]; i.v., 24.00 h): 6.24 mmol/L
Glucose (mean) (glucose [4]; p.o. capsule, 0.25 h): 6.08 mmol/L
Glucose (mean) (glucose [4]; p.o. capsule, 0.50 h): 5.87 mmol/L
Glucose (mean) (glucose [4]; p.o. capsule, 0.75 h): 5.85 mmol/L
Glucose (mean) (glucose [4]; p.o. capsule, 1.00 h): 5.57 mmol/L
Glucose (mean) (glucose [4]; p.o. capsule, 1.50 h): 5.24 mmol/L
Glucose (mean) (glucose [4]; p.o. capsule, 2.00 h (breakfast)): 5.04 mmol/L
Glucose (mean) (glucose [4]; p.o. capsule, 3.00 h): 5.04 mmol/L
Glucose (mean) (glucose [4]; p.o. capsule, 4.00 h): 4.43 mmol/L
Glucose (mean) (glucose [4]; p.o. capsule, 5.00 h (lunch)): 4.71 mmol/L
Glucose (mean) (glucose [4]; p.o. capsule, 6.00 h): 5.41 mmol/L
Glucose (mean) (glucose [4]; p.o. capsule, 9.00 h): 5.42 mmol/L
Glucose (mean) (glucose [4]; p.o. capsule, 24.00 h): 5.44 mmol/L
Glucose (mean) (glucose [4]; p.o. solution, 0.25 h): 6.13 mmol/L
Glucose (mean) (glucose [4]; p.o. solution, 0.50 h): 5.99 mmol/L
Glucose (mean) (glucose [4]; p.o. solution, 0.75 h): 5.83 mmol/L
Glucose (mean) (glucose [4]; p.o. solution, 1.00 h): 5.77 mmol/L
Glucose (mean) (glucose [4]; p.o. solution, 1.50 h): 5.40 mmol/L
Glucose (mean) (glucose [4]; p.o. solution, 2.00 h (breakfast)): 5.11 mmol/L
Glucose (mean) (glucose [4]; p.o. solution, 3.00 h): 5.40 mmol/L
Glucose (mean) (glucose [4]; p.o. solution, 4.00 h): 4.86 mmol/L
Glucose (mean) (glucose [4]; p.o. solution, 5.00 h (lunch)): 5.12 mmol/L
Glucose (mean) (glucose [4]; p.o. solution, 6.00 h): 5.60 mmol/L
Glucose (mean) (glucose [4]; p.o. solution, 9.00 h): 5.68 mmol/L
Glucose (mean) (glucose [4]; p.o. solution, 24.00 h): 5.60 mmol/L
Concentration (mean) ([5]; 2 mg capsule, 0 h): 0.0 ng/mL
Concentration (mean) ([5]; 2 mg capsule, 4.00 h, listed as 388, 240 min): 17 ± 5 ng/mL
Concentration (mean) ([5]; 2 mg capsule, 5.00 h, listed as 388, 300 min): 12 ± 3 ng/mL
Concentration (mean) ([5]; 2 mg capsule, 6.00 h, listed as 388, 360 min): 8 ± 4 ng/mL
Concentration (mean) ([5]; 2 mg capsule, 24.00 h): 0.0 ng/mL
Rise and peak of plasma level, tablet versus capsule ([5]; 2 mg p.o.): rises rather more rapidly after administration of the tablet and reaches its peak somewhat earlier
Time at which level reaches / falls below the detection limit ([5]; 2 mg p.o.): ≥ 6 h
Time at which level reaches / falls below the detection limit ([5]; 2 mg p.o., listed as AG-EE 398 ZW): about 6 hours
Maximum concentration ([5]; 2 mg tablet p.o.): 83.5 ± 25.5 ng/mL
Concentration (mean) ([5]; 2 mg tablet, 0 h): 0.0 ng/mL
Concentration (mean) ([5]; 2 mg tablet, 4.00 h, 240 min): 19.1 ng/mL
Concentration (mean) ([5]; 2 mg tablet, 24.00 h): 0.0 ng/mL
concentration at 0.2 h [5, 10]: 0.9 ng/mL
concentration at 0.33 h [5, 10]: 17.5 ng/mL
concentration at 0.5 h [5, 10]: 44.9 ng/mL
concentration at 0.75 h [5, 10]: 66.4 ng/mL
concentration at 1 h [5, 10]: 73.7 ng/mL
concentration at 1.5 h [5, 10]: 65.1 ng/mL
concentration at 2 h [5, 10]: 50.8 ng/mL
concentration at 3 h [5, 10]: 27.9 ng/mL
concentration at 4 h [5, 6]: 16.8 ng/mL
concentration at 5 h [5, 7]: 12.2 ng/mL
concentration at 6 h [5, 8]: 7.8 ng/mL
concentration at 9 h [5, 10]: 3.3 ng/mL
concentration at 0.2 h [5, 11]: 15 ng/mL
concentration at 0.33 h [5, 11]: 55.6 ng/mL
concentration at 0.5 h [5, 11]: 75.6 ng/mL
concentration at 0.75 h [5, 11]: 83.5 ng/mL
concentration at 1 h [5, 11]: 81.3 ng/mL
concentration at 1.5 h [5, 11]: 65.9 ng/mL
concentration at 2 h [5, 11]: 51.3 ng/mL
concentration at 3 h [5, 11]: 32.4 ng/mL
concentration at 5 h ([5]; human, plasma, po, 2 mg, 2 mg tablet, 5.00 h): 13.2 ng/mL
concentration at 6 h ([5]; human, plasma, po, 2 mg, 2 mg tablet, 6.00 h): 9.5 ng/mL
concentration at 9 h [5, 11]: 5.2 ng/mL
Cmax [5, 9]: 74 ± 15 ng/mL
